Each structure is given as a SMILES string. Read-outs that look alike come from different tables or passages of the source.

Series [1] in a line: Pharmacokinetic study in dogs. The class given is in vivo, male Beagle dogs. The conditions noted are these: for half-life / Vd / clearance / bioavailability / Cmax / Tmax: male, Beagle, plasma; for half-life: dog; for Vd: read-out: Vss; for Cmax / Tmax: po, p.o; for Cmax: read-out: Cmax (head Co*/); for Tmax: read-out: Tmax (head Tma). Here is the method:
Intravenous (i.v) and Oral formulations for pharmacokinetic (PK) studies was formulated in different vehicles and excipients to achieve the desirable solubility for intravenous and Oral routes of administration.
Appropriate amount of the test compound was weighed and dissolved in required volume of the vehicles, followed by vertexing for a few seconds to dissolve the compound. Then the solution (or) suspension was sonicated at room temperature for 5 minutes to obtain a visually clear solution and or homogenous suspension. All the formulations were prepared freshly at room temperature before dosing.
The dog PK study was carried out in male Beagle dogs of minimum 10 Kg body weight to estimate the plasma clearance, volume of distribution and terminal half-life, area under curve (AUC) and peak plasma concentration (Cmax), time of peak plasma concentration (Tmax) and absolute bioavailability (% F) following intravenous and oral routes of administration.
Briefly, Example 13 and Example 39 was administered to a group of 3 non-naïve male dogs. The first set of 3 animals received an intravenous administration and following a washout period of 7 days, received an oral administration of Example 13. Following a further 7-day washout the animals will then repeat the intravenous and oral dosing regimen with an administration of Example 39. Blood samples (1 mL) was collected from the jugular vein by venepuncture into tubes containing K2EDTA anticoagulant at the following sampling times: • IV: Predose, 0.083 (5 min), 0.25, 0.5, 1, 2, 4, 8 and 24 hrs post-dose. • PO: Predose, 0.25, 0.5, 1, 2, 4, 8 and 24 hrs post-dose.
Immediately following collection blood samples was inverted to ensure mixing with anticoagulant and placed on wet ice. As soon as practically possible samples were centrifuged (3000 rpm, 10 min, at 4° C.) and the resultant plasma decanted into appropriately labelled polypropylene tubes in 96-well plate format and stored in a freezer set to maintain a temperature of ≤−65° C., until analysis.
Plasma samples were analysed for a fit-for purpose LC-MS/MS method with a lower limit of quantification. The pharmacokinetic parameters were calculated using the non-compartmental analysis tool of validated Phoenix® WinNonlin® software (Certara, USA version 8.4) with linear up and log down method for estimating AUC.
All animals in intravenous (IV bolus) group were under fed state and animals in oral groups were fasted overnight (min 12 hr) before dose administration and food was provided 4 h post dose administration. All animals were received water ad libitum during the study period. The mean (±SD) pharmacokinetic parameters of Example 13, Example 122b & Example 39 following IV bolus and Oral dose administration in Mice/Rat and Dog is provided in Table-9.

Series [2] is described as follows: Plasma protein binding, equilibrium dialysis, mouse. The class given is in vitro ADME. The conditions noted are these: plasma (10% plasma, extrapolated to 100% plasma), CD-1 plasma, 18 hours at 37° C. The procedure:
Protein binding is measured using the equilibrium dialysis technique. Compound is added to 10% plasma giving a concentration of 10 μM and dialysed with isotonic buffer for 18 hours at 37° C. The plasma and buffer solutions are analysed using generic LC UV/MS and the first apparent binding constant for the compound derived. The binding constant is then used to determine the % free in 100% plasma
The percentage of plasma bound/unbound fraction preparation was calculated as follows
[formula] [formula] where, • Tc=Total plasma concentration was determined by the calculated concentration on the plasma side of the chamber • Fc=[…] was determined by the calculated concentration on the buffer side of the chamber • To=Total compound concentration determined before analysis.

Series [3] concerns CT-26 syngeneic colon cancer. In words: In vivo efficacy on CT-26 syngeneic colon cancer mice model. The conditions noted are these: PO, TID; for Decrease in tumor volume: by day 22. Also on record: species or system Balb/c mice. The procedure: CT-26 syngeneic model of colon cancer in BALB/c is an established model and has been reported widely in literature for screening of compounds in efficacy studies for immune-oncology therapeutics.
CT-26 Cell line expansion and sub-culturing: CT26 (CT26·WT, ATCC® CRL-2638) is an N-nitroso-N-methylurethane-(NNMU) induced, undifferentiated colon carcinoma cell line derived from Mus musculus, mouse colon tissue. Cells were cultured using standard techniques in RPMI 1640 with 10% FBS and 1× penicillin—streptomycin solution at 37° C. with 5% CO2 in a suitable incubator. Cell density was determined using a hemocytometer upon harvest and the cells were prepared in 100 μL of cold PBS in a microfuge tube and kept on ice until use for inoculations.
Mice: All animal studies were conducted in accordance with an Institutional Animal Care and Use Committee. 6- to 8-week-old Balb/c mice were typically housed in sterilized suspended standard, polysulfone cages, with stainless steel top grills having facilities for holding pelleted food and drinking water in polycarbonate bottles with stainless steel sipper tubes and environment enrichment objects in the vivarium for two weeks prior to tumor cell injection. The same conditions were maintained throughout the subsequent tumor engraftment and treatment evaluation.
Tumor engraftment: All animals were inoculated with 5×10^5/mouse in 100 μL subcutaneously in the lower right flank. Tumor growth was monitored twice a week from Day 4 onwards using a calibrated digital vernier caliper and the tumor volume calculated using the formula, tumor volume (mm3)=length×(width) 2/2. Once tumor volume reaches 100±50 mm^3 on Day 12, all animals were randomized into respective treatment groups as per study plan. See Table 1 for details regarding the setup and dosing of animals. Tumor volume at the time of randomization was 90 mm^3 There was no statistical significance in tumor volume at the time of treatment initiation. Post randomization, animals were treated with the test substance for 21 days. The average tumor volume/size in the treatment group allowed to reach up to 2500 mm^3, beyond this tumor size the animals to be sacrificed humanely as per general guidelines.
Formulation and administration: Formulations were prepared with the components listed in Table 11 every day and mixed well before dosing each time and administered orally. The anti PD-1 antibody was administered via the intraperitoneal route.
Data is represented as Mean±SEM n=4-10, *p<0.05 Vs Vehicle, One-Way ANOVA followed by Dunnett's multiple comparison test. […] Significant decrease in tumor volume was observed on Day 18 and Day 22 compared to vehicle treatment.

The subject of a further series is Granzyme B. Description: Biomarker (Granzyme-B) FACS analysis in tumour samples from the efficacy study. The class given is in vivo, Balb/c mice. Conditions: 30 mg/kg TID, Day 22, vs vehicle and anti-PD1 antibody groups. Here is the method:
On Day 22, the animals from the efficacy study above were euthanized by overdose of gaseous anaesthesia and tumor samples were collected and their weights were recorded before evaluating for Granzyme-B by FACs analysis.
Approximately 100 mg of tissue samples were homogenized, and the single cell suspensions were fixed and permeabilized using Miltenyi Biotec and BD kit-based reagents before staining with anti-Granzyme-B antibodies. Cells were subjected to FACS analysis while using isotype controls to ensure the specific binding of antibody and unstained cells as a negative control. The result obtained were analyzed using Flow Jo software and represented in FIG. 2.

Where [4] appears, read: iv, 3 mg/kg, Dog, IV bolus, Table 6, read-out: T1/2 (IV bolus) (converted).
Setting [5] is: iv, 3 mg/kg, Dog, i.v, 3 mg/kg, read-out: t1/2 (converted).
The mark [6] stands for this setting: oral, 10 mg/kg, Dog, Table 6, read-out: % F.
The mark [7] stands for this setting: 30 mg/kg, line stands under Dog.
[8] abbreviates: Dog, oral 10 mg/kg vs IV bolus 3 mg/kg, read-out: % F (bioavailability).

Turning to `CCc1c(C)nn2c(N)c(C#N)c(NCCc3ccn(C4(CO)CC4)n3)nc12` [Example 39, 7-amino-3-ethyl-5-((2-(1-(1-(hydroxymethyl)cyclopropyl)-1H-pyrazol-3-yl)ethyl)amino)-2-methylpyrazolo[1,5-a] pyrimidine-6-carbonitrile], in series [1] (Dog), the “Total systemic clearance relative to hepatic clearance” value turned out to be 1.7 ×. The “Volume of distribution relative to total body water (TBW)” value in series [1] (Dog) stood at 3.3 × TBW. The “Total CLsystemic in plasma” value in series [1] (Dog, Table 6) is listed as 52 mL/min/kg. The “Co (head Co*/)” value in series [1] (Dog, i.v, 3 mg/kg) is 1352 ng/m. Besides, the results for the half-life in series [1] (setting [4]) and in series [1] (setting [5]) were 27 min and 24 min, respectively. Besides, the Vd in series [1] (intravenous, Dog, Table 6) came out at 2 L/kg; in series [1] (iv, Dog, i.v, 3 mg/kg), 2 L/kg. In addition, the clearance in series [1] (iv, Dog, i.v, 3 mg/kg) is 52 ± 8.7 mL/min/kg. The bioavailability in series [1] (setting [6]) and in series [1] (setting [8]) was 25% in each case. For the same compound, the Cmax in series [1] (Dog, 10 mg/kg) was determined as 618 ng/mL; in series [1] (setting [7]), 201 ng/mL. For the same compound, the time of peak concentration (Tmax) in series [1] (Dog, 10 mg/kg) was found to be 30 min; in series [1] (setting [7]), 30 min. Moreover, the unbound share (fraction unbound) at 18 h, 10 µM in series [2] is 0.125.
As for `Cc1cccc(CCNc2nc3c(C)c(C)nn3c(N)c2C#N)n1` [Example 13, 7-amino-5-((2-(6-methylpyridin-2-yl)ethyl)amino)-2,3-dimethylpyrazolo[1,5-a]pyrimidine-6-carbonitrile], the “Total systemic clearance relative to hepatic clearance” value in series [1] (Dog) was “equivalent to that of hepatic clearance”. Also, the “Volume of distribution relative to total body water (TBW)” value in series [1] (Dog) is 3 × TBW. Further, the “Total CLsystemic in plasma” value in series [1] (Dog, Table 6) was found to be 33 mL/min/kg. Moreover, in series [1] (Dog, i.v, 3 mg/kg), the “Co (head Co*/)” value amounted to 2899 ng/m. Further, the figures for the half-life in series [1] (setting [4]) and in series [1] (setting [5]) were 46.2 min and 42 min, respectively. Moreover, the Vd was found to be 1.8 L/kg in series [1] (intravenous, Dog, Table 6) and 1.75 L/kg in series [1] (iv, Dog, i.v, 3 mg/kg). The compound further returned a clearance in series [1] (iv, Dog, i.v, 3 mg/kg) of 33 ± 3.6 mL/min/kg. In addition, the bioavailability in series [1] (setting [6]) and in series [1] (setting [8]) was 25% throughout. In addition, the Cmax in series [1] (Dog, 10 mg/kg) was 839 ng/mL. For the same compound, the time to peak (Tmax) in series [1] (Dog, 10 mg/kg) was 30 min. Further, the “Change in tumor volume” value in series [3] (1 mg/kg, vs vehicle) is given as “did not show significant change in tumor volume”. Moreover, the “Decrease in tumor volume” value in series [3] (3 mg/kg) was 35%; in series [3] (10 mg/kg) it was 35%; in series [3] (30 mg/kg), 48%. Besides, the fraction unbound at 18 h, 10 µM in series [2] is 0.0933. In the series with Granzyme B, the “Tumor Granzyme B expression” value is on record as “significant increase”.

Source of the values: patent publication US12577247B2 (BUGWORKS RESEARCH, INC., priority 2021, dated 2026).
